Reference: the NIST ThermoML archive (doi:10.1021/acs.jced.5b00259)

Assay: xn = mol fraction of the nth substance listed
Conditions: 100 kPa, Liquid

CCOS(=O)(=O)[O-].CC[NH+]=C(N(C)C)N(C)C [2-ethyl-1,1,3,3-tetramethylguanidinium ethyl sulfate] + CCO
Conditions | mass density [kg/m3] | viscosity [mPa·s]
293.15 K, x1 = 0.0998 | 910.21 | 2.824
293.15 K, x1 = 0.2003 | 984.3 | 5.826
293.15 K, x1 = 0.3006 | 1033.78 | 11.42
293.15 K, x1 = 0.4016 | 1069.61 | 22.83
293.15 K, x1 = 0.498 | 1095.76 | 40.88
293.15 K, x1 = 0.5996 | 1117.54 | 73.39
293.15 K, x1 = 0.6976 | 1134.51 | 127.4
293.15 K, x1 = 0.7969 | 1148.58 | 213.6
293.15 K, x1 = 0.9008 | 1160.83 | 385.6
293.15 K, x1 = 1 | 1170.76 | 673.4
298.15 K, x1 = 0.0998 | 906.2 | 2.546
298.15 K, x1 = 0.2003 | 980.34 | 5.136
298.15 K, x1 = 0.3006 | 1030 | 9.821
298.15 K, x1 = 0.4016 | 1065.96 | 19.07
298.15 K, x1 = 0.498 | 1092.12 | 33.16
298.15 K, x1 = 0.5996 | 1113.91 | 57.2
298.15 K, x1 = 0.6976 | 1130.91 | 95.44
298.15 K, x1 = 0.7969 | 1145.02 | 154
298.15 K, x1 = 0.9008 | 1157.3 | 264.4
298.15 K, x1 = 1 | 1167.24 | 441.5
303.15 K, x1 = 0.0998 | 902.18 | 2.307
303.15 K, x1 = 0.2003 | 976.55 | 4.559
303.15 K, x1 = 0.3006 | 1026.22 | 8.524
303.15 K, x1 = 0.4016 | 1062.27 | 16.15
303.15 K, x1 = 0.498 | 1088.47 | 27.11
303.15 K, x1 = 0.5996 | 1110.31 | 45.41
303.15 K, x1 = 0.6976 | 1127.33 | 73.08
303.15 K, x1 = 0.7969 | 1141.46 | 114.2
303.15 K, x1 = 0.9008 | 1153.79 | 187.9
303.15 K, x1 = 1 | 1163.76 | 302.5
308.15 K, x1 = 0.0998 | 898.18 | 2.096
308.15 K, x1 = 0.2003 | 972.66 | 4.072
308.15 K, x1 = 0.3006 | 1022.45 | 7.459
308.15 K, x1 = 0.4016 | 1058.6 | 13.81
308.15 K, x1 = 0.498 | 1084.84 | 22.56
308.15 K, x1 = 0.5996 | 1106.73 | 36.71
308.15 K, x1 = 0.6976 | 1123.77 | 57.39
308.15 K, x1 = 0.7969 | 1137.92 | 86.55
308.15 K, x1 = 0.9008 | 1150.29 | 134.9
308.15 K, x1 = 1 | 1160.28 | 214.6
313.15 K, x1 = 0.0998 | 894.15 | 1.91
313.15 K, x1 = 0.2003 | 968.7 | 3.656
313.15 K, x1 = 0.3006 | 1018.66 | 6.577
313.15 K, x1 = 0.4016 | 1054.91 | 11.92
313.15 K, x1 = 0.498 | 1081.22 | 19.04
313.15 K, x1 = 0.5996 | 1103.16 | 30.14
313.15 K, x1 = 0.6976 | 1120.23 | 45.97
313.15 K, x1 = 0.7969 | 1134.39 | 67.31
313.15 K, x1 = 0.9008 | 1146.78 | 103.7
313.15 K, x1 = 1 | 1156.8 | 157.2
318.15 K, x1 = 0.0998 | 890.12 | 1.746
318.15 K, x1 = 0.2003 | 964.81 | 3.298
318.15 K, x1 = 0.3006 | 1014.86 | 5.839
318.15 K, x1 = 0.4016 | 1051.24 | 10.38
318.15 K, x1 = 0.498 | 1077.62 | 16.26
318.15 K, x1 = 0.5996 | 1099.62 | 25.65
318.15 K, x1 = 0.6976 | 1116.66 | 37.27
318.15 K, x1 = 0.7969 | 1130.88 | 53.38
318.15 K, x1 = 0.9008 | 1143.26 | 79.6
318.15 K, x1 = 1 | 1153.33 | 118.3
323.15 K, x1 = 0.0998 | 886.07 | 1.601
323.15 K, x1 = 0.2003 | 960.91 | 2.99
323.15 K, x1 = 0.3006 | 1011.05 | 5.215
323.15 K, x1 = 0.4016 | 1047.55 | 9.094
323.15 K, x1 = 0.498 | 1074.02 | 14.01
323.15 K, x1 = 0.5996 | 1096.11 | 21.2
323.15 K, x1 = 0.6976 | 1113.14 | 30.75
323.15 K, x1 = 0.7969 | 1127.39 | 43.06
323.15 K, x1 = 0.9008 | 1139.76 | 62.7
323.15 K, x1 = 1 | 1149.87 | 91.22
